Data as given in US9061994B1, “Materials and methods useful to induce vacuolization, cell death, or a combination thereof” (The University of Toledo, priority 2011, dated 2015).
Values belong to the compound of their own block, whether it stands above or below them.

Experiments:
[1] = system: U251 glioblastoma cells; test: Sulforhodamine B (SRB) growth inhibition assay; assay type: cell-based, human; details: U251; 48 h SRB; Table 1, Table 2 (FIG. 64), FIG. 63
Procedure: Cells experiencing methuosis initially undergo extreme cytoplasmic vacuolization which can be readily assessed by phase contrast microscopy. As viability is compromised (usually between 24-48 h), the cells detach from the culture surface and lose membrane integrity. […] Although methuosis can occur in a broad spectrum of human tumor cell lines, SAR studies were carried out with U251 glioblastoma cells. Therefore, this cell line was used in the present evaluation.
Total protein in adherent cells was measured by the sulforhodamine B (SRB) colorimetric assay, following standard procedures for anticancer drug screening used by the U.S. National Cancer Institute. […] On the day after plating, four wells were assayed to establish a pre-drug (time-0) baseline. Test compounds were diluted as described above and added to the remaining wells. The medium and compounds were replenished after 24 hr. SRB assays were performed at a 48 h endpoint as described, using a SpectraMax Plus 384 plate reader (Molecular Devices, Sunnyvale, Calif.) to determine absorbance at 515 nm.
Cells were seeded in 96-well plates as described in the methods. After 24 h, each compound was added at the indicated concentrations and SRB assays were performed after an additional 48 h. Each point represents the mean±SD of values from four wells. The dotted line on each graph indicates the average absorbance of four wells sampled at time-0 (i.e., the time that the compounds were added).
The human U251 glioblastoma cell line was obtained from the DCT Tumor Repository (National Cancer Institute, Fredrick, Md.). […] All test compounds were dissolved in DMSO and serially diluted in DMSO so that the desired final drug concentrations could be achieved by making a 1/1000 dilution into the culture medium. One day after plating, four wells were assayed to establish a pre-drug (time-0) baseline. At the same time, fresh medium containing test compounds was added to the remaining wells. Control wells received DMSO alone. SRB assays were performed at a 48 h endpoint. To minimize the impact of potential variations in stability among the compounds, medium with test compound was replenished after the first 24 h.

[2] = system: U251 glioblastoma cells; test: Cell cycle analysis by flow cytometry (DNA histograms); assay type: cell-based, human; details: 24 h, 3 μM (FIGS. 69A-69B)
[3] = Stability during workup, manipulation or storage; assay type: physicochemical; details: among ester series 120, 125, 310, 309
Procedure: Expanding previous SAR studies of 2-indolyl alkyl substitutions, additional functionalized probes were prepared as depicted in Schemes 4-7. […] Excellent regioselectivity was achieved by the di-lithio species derived from 418 and sec-butyllithium in THF at −40° C. Cyclization and deprotection occurred in a one-pot fashion with excess TFA affording 5-methoxy-2-trifluoromethylindole (203). Synthesis of aldehyde 204 and condensation to the final trifluoromethyl target 124 were accomplished by standard methods. Alkyl carboxylates (301-304) were synthesized from commercially available acid 300 by Fisher esterification conditions using their corresponding alcohols (Scheme 4E, FIG. 78). Formylation reactions to yield aldehydes 305-308, followed by Claisen-Schmidt condensation to provide 120, 125, 310, 309, were conducted as previously described. […] Without wishing to be bound by theory, it is believed this is owing to its better leaving group among this series.

[4] = system: U251 glioblastoma cells; test: Effect of filipin, bafilomycin A1 or EHT 1864 on MIPP-induced vacuoles; assay type: cell-based, human; details: 10 μM MIPP with 12 μg/ml filipin, 0.1 μM bafilomycin A1 or 25 μM EHT 1864
Procedure: To inhibit clathrin-independent endocytosis, U251 cells were washed twice with serum-free DMEM, then pretreated for 30 min with DMEM+0.5% BSA in the presence or absence of 12 μg/ml filipin. Following the pretreatment, MIPP was added to the dishes at a final concentration of 10 μM and phase-contrast images were acquired 100 min later. To inhibit the vacuolar-type H^+ ATPase, U251 cells were pretreated for 1 h with 0.1 μM bafilomycin A1 or an equivalent volume of DMSO. At the end of the hour, 10 μM MIPP, or an equivalent volume of DMSO, was added without a medium change. Phase-contrast images of the cells were acquired 1 h after the addition of MIPP. […] The percentage of vacuolated cells in the population was determined by scoring at least 100 cells in multiple phase-contrast photomicrographs for each condition. Cells containing three or more phase-lucent vacuoles with diameters ≧0.5 μm or >10 smaller vacuoles (0.1-0.5 μm) were scored as positive. For comparison, the effect of EHT 1864 on Ras-induced vacuolization was also determined. […] After 24 h, phase-contrast images were taken and the number of vacuolated cells was scored as described above.

[5] = target: T1, porcine tubulin (Sus scrofa, UniProt P02550+P02554); test: Cell-free fluorescence-based tubulin polymerization assay; assay type: biochemical; details: final concentration 3 μM (FIG. 61)
T1 construct: purchased Cytoskeleton, Inc. BK011P
T1 sequence (P02550 whole entry): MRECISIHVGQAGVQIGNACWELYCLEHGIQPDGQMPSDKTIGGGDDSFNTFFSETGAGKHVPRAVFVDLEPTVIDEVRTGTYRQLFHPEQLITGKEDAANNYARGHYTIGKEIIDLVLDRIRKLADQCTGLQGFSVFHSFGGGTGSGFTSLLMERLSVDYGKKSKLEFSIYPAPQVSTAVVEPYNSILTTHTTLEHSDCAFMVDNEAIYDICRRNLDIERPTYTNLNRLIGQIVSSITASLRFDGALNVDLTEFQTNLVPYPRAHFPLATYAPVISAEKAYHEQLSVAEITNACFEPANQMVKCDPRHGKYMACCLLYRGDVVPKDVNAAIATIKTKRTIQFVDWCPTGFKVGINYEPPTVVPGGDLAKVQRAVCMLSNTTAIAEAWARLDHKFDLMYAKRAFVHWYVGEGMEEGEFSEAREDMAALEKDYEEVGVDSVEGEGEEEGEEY
T1 sequence (P02554 whole entry): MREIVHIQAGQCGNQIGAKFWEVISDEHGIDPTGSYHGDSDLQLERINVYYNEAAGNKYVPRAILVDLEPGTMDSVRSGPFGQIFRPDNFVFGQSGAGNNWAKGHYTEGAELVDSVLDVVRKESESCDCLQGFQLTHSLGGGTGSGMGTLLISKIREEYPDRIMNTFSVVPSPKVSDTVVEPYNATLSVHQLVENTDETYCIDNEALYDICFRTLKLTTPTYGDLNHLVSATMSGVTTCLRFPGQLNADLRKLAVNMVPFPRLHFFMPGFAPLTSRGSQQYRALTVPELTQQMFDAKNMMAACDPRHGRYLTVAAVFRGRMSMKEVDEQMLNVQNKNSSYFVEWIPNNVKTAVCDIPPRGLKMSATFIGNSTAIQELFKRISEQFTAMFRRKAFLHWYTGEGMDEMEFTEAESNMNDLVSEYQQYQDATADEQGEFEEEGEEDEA

[6] = system: U251 glioblastoma cells; test: Classification by cellular phenotype induced in cultured cells; assay type: cell-based, human; details: FIG. 72
[7] = system: U251 glioblastoma cells; test: Cell morphology / vacuolization by phase-contrast microscopy; assay type: cell-based, human; details: concentration not singled out ([…] and 10 μM or as in figure)
[8] = Stability on storage in DMSO (1H NMR); assay type: physicochemical
Text: Derivatives substituted with hydroxyl-functionality were synthesized based upon the results obtained in previous SAR studies for 2-substituted indole. Subtle chemical modifications at this position can alter activity, and are sensitive to both steric and electronic properties. […] Previously prepared intermediate ethyl 5-methoxyindole-2-carboxylate (302) was reduced by LAH to 425, which was then protected by acetylating the primary hydroxyl group (426). The acetyl group was then hydrolyzed during the alkaline conditions used to quench the acidic reagents generated during Vilsmeier's step that produce aldehyde 427. […] Alcohol 425 was oxidized to 5-methoxyindole-2-carboxaldehyde (428) by MnO2 in EtOAc heated to reflux. The aldehyde was subjected toWittig conditions using phosphonium ylide (Ph3CHCO2C2H5) to produce the α,β-unsaturated ester 429, which was reduced to 2-hydroxypropylindole 430 using excess LAH. The primary hydroxyl group was protected as the O-acetate (431) under conditions of excess acetic anhydride, TEA and CH3CN. […] As anticipated, the O-acetyl group was hydrolyzed under these conditions.
5-Methoxy-2-hydroxymethylindole-3-carboxaldehyde 427 (75 mg, 0.37 mmol), 4-acetylpyridine (118 mg, […]), and piperidine (82.6 mg, […]) were dissolved in methanol (1 mL) and heated to reflux. The reaction mixture was stirred for 45 min during which the solution became bright orange. The flask was then removed from heat and allowed to stir for 1 h. A precipitate formed which was collected, washed with ice-cold MeOH (5 mL) and dried in a vacuum desiccator for 24 h to yield an orange solid (28 mg, 24%). mp 229-230° C. TLC Rf 0.65 (6% MeOH/DCM), 0.21 (80% EtOAc/hexanes). […] 13C NMR (150 MHz, d6-DMSO) δ 188.2, 155.2, 150.6, 148.0, 145.0, 139.3, 131.0, 126.7, 121.4, 113.8, 113.0, 111.6, 108.3, 103.4, 55.57, 55.32. Elemental analysis calculated for C18H16N2O3.0.033 MeOH: C, 70.00; H, 5.26; N, 9.05. Found: C, 69.61; H, 5.09; N, 8.90. […] When stored in its isolated precipitate form, this compound is stable.

Compound: COc1ccc2[nH]c(C(=O)[O-])c(/C=C/C(=O)c3ccncc3)c2c1.[Na+] [402o, sodium trans-3-(5-methoxyindol-2-carboxylate-3-yl)-1-(4-pyridinyl)-2-propen-1-one]
growth inhibitory (GI) activity, in words [1]: either markedly attenuated or completely eliminated
cell cycle distribution (G2/M, sub-G1/G0) [2]: no detectable effect on cell cycle distribution

Compound: COc1ccc2[nH]c(C(=O)OC(C)C)c(/C=C/C(=O)c3ccncc3)c2c1 [compound 309, isopropyl trans-3-(5-methoxyindol-2-carboxylate-3-yl)-1-(4-pyridinyl)-2-propen-1-one]
sensitivity to hydrolysis [3]: most sensitive to hydrolysis during workup and subsequent manipulation or storage

Compound: CO/C1=C\C(C)=C\[C@@H](C)[C@@H](O)[C@@H](C)C/C(C)=C/C=C/[C@H](OC)[C@@H]([C@@H](C)[C@@H](O)[C@H](C)[C@@]2(O)C[C@@H](O)[C@H](C)[C@@H](C(C)C)O2)OC1=O [Baf-A, bafilomycin A1]
effect on induction of vacuoles by MIPP [4]: completely abrogated the ability of the cells to generate vacuoles when they were exposed to MIPP

Compound: CCOC(=O)c1[nH]c2ccc(OC)cc2c1/C=C/C(=O)c1ccncc1 [compound 125, ethyl trans-3-(5-methoxyindol-2-carboxylate-3-yl)-1-(4-pyridinyl)-2-propen-1-one]
inhibition of tubulin polymerization [5]: partially inhibited tubulin polymerization

Compound: CCCCC[C@@H](O)[C@H]1C(=O)O[C@H](C)[C@@H](O)/C=C/C=C/C=C/C=C/C=C(\C)[C@@H](O)C[C@H](O)C[C@H](O)C[C@H](O)C[C@H](O)C[C@H](O)C[C@@H]1O [filipin]
effect on induction of vacuoles by MIPP [4]: failed to show the typical morphological response to MIPP

Compound: COc1ccc2[nH]c(C(F)(F)F)c(/C=C/C(=O)c3ccncc3)c2c1 [compound 124, trans-3-(5-methoxyindol-2-trifluoromethyl-3-yl)-1-(4-pyridinyl)-2-propen-1-one]
inhibition of tubulin polymerization [5]: partially inhibited tubulin polymerization

Compound: COc1ccc2[nH]c(C)c(/C=C/C(=O)c3ccncc3)c2c1 [MOMIPP, trans-3-(5-methoxy-2-methyl-1H-indol-3-yl)-1-(4-pyridinyl)-2-propen-1-one]
inhibition of tubulin polymerization [5]: superimposable with the DMSO control

Compound: 3-(2-hydroxypropyl-5-methoxy-indole-3-yl)-1-(4-pyridinyl)-2-propen-1-one [402q]
class of cellular phenotype [6]: Class 2
cell morphology / vacuolization [7]: extensive accumulation of large cytoplasmic vacuoles, with loss of viable adherent cells at concentrations >2.5 μM
growth inhibitory (GI) activity, in words [1]: GI values in the low micromolar range

degraded ([8]; stored in d6-DMSO, after 48 h, 1H NMR): ~50%
stability as isolated precipitate ([8]; stored in its isolated precipitate form): stable
Compound: COc1ccc2[nH]c(CO)c(C=CC(=O)c3ccncc3)c2c1 [402p, 3-(2-hydroxymethyl-5-methoxy-1H-indole-3-yl)-1-(4-pyridinyl)-2-propen-1-one]
stability in DMSO, in words ([8]; storage in DMSO): unstable when stored at rt in DMSO for 48 h

Compound: O=c1cc(CN2CCOCC2)occ1OCCCCCSc1ccnc2cc(C(F)(F)F)ccc12 [EHT 1864]
effect on induction of vacuoles by MIPP [4]: no detectable effect on vacuole formation

Compound: CN[C@H]1CCc2cc(OC)c(OC)c(OC)c2-c2ccc(OC)c(=O)cc21 [colcemid, reference compound]
cell cycle distribution (G2/M, sub-G1/G0) [2]: significantly decreased compared to the DMSO control (p≦0.05)
